Legend:
Assay type in all cases: cell-based
m3 receptor = molecular target: T1, m3 receptor (Homo sapiens, UniProt P20309); test: R-SAT / NIH 3T3 cells transfected with m3 muscarinic receptor
T1 construct: expressed in transfected cells; host or cells: NIH 3T3 (ATCC CRL 1658)
From the text: A particularly convenient functional assay system is the receptor selection and amplification assay disclosed in U.S. Pat. No. 5,707,798 describing a method of screening for bioactive compounds by utilizing the ability of cells transfected with receptor DNA, e.g. coding for the different muscarinic subtypes, to amplify in the presence of a ligand of the receptor. Cell amplification is detected as increased levels of a marker also expressed by the cells.
(§1) Transfection of cells with muscarinic receptor DNAs (general procedure) NIH 3T3 cells (available from the American Type Culture Collection as ATCC CRL 1658) were grown at 37° C. in a humidified atmosphere (5% CO2) incubator in Dulbecco's modified Eagle's medium (DMEM) supplemented with 4.5 g/l glucose, 4 mM glutamine, 50 units/m1 penicillin, 50 units/m1 streptomycin (available from Advanced Biotechnologies, Inc., Gaithersburg, Md.) and 10% calf serum (available from Sigma, St. Louis, […].). The cells were treated with trypsin-EDTA, spun down and plated at 2×10^6 per 15 cm dish in 20 m1 of DMEM containing 10% calf serum.
(§2) The m1-m5 muscarinic receptor subtypes were cloned substantially as described by Bonner et al., Science 237, 1987, p. 527, and Bonner et al., Neuron 1, 1988, p. 403. For the m2 and m4 receptors, the cells were co-transfected with DNA encoding a chimera between the Gq protein and the five carboxy-terminal amino acids of the Gi protein (the Gq-i5 construct is described by Conklin et al., Nature 363, 1993, p.274).
On day one, the cells were transfected using the Superfect transfection reagent (available from Qiagen, Valencia, Calif.) in accordance with the manufacturer's instructions. Receptor DNA, β-gal DNA (pSI-β-galactosidase available from Promega, Madison, Wis.), chimeric Gq-i5 DNA for the m2 and m4 receptor subtype assays, and salmon sperm DNA (available from Sigma, St. Louis, […].) as filler to a total of 20 μg DNA was added per plate. Prior to addition to the plates, 60 μl Superfect was added to the DNA and mixed thoroughly by pipetting up and down several times. The mixture was incubated at room temperature for 10-15 minutes. The media were aspirated, and 12 ml fresh DMEM containing 10% calf serum and 50 units/m1 penicillin/streptomycin was added to the plates. The DNA-Superfect solution was mixed once more with a pipette and added to the plate which was swirled to distribute the DNA mixture evenly over the surface. The cells were incubated overnight at 37° C. and 5% CO2. After incubation, the media were aspirated and the plates were rinsed once with a 15 m1 volume of Hank's Buffered Saline. The plates were swirled to ensure thorough rinsing. 20 m1 fresh DMEM supplemented with 10% calf serum and 50 units/m1 penicillin/streptomycin was added to the plates. The cells were incubated for 24-48 hours until the plates were 100% confluent.
Assay of NIH 3T3 cells transfected with muscarinic receptor subtypes (general procedure) DMEM containing 2% Cyto-SF3 was heated at 37° C. in a water bath under sterile conditions. Sterile working stock solutions of test compounds to be assayed were prepared by diluting the compounds in DMEM to 8× the final concentration for testing. The compound (carbachol) to be included in the assay as a positive control was also diluted in DMEM to 8× the final concentration. 50 μL of the DMEM containing 2% Cyto-SF3 was added to each well of 96-well microtiter plates under sterile conditions. Then, 16 of compound solutions were added to the top wells of the plates, and dilution of the solutions was performed by taking 16 μl of the compound solutions from the top wells and pipetting them into the next row of wells. This procedure was repeated with each subsequent row of wells, except that 50 μl medium alone was added to the baseline control wells (the wells that contain medium and cells, but not test compounds) and plate control wells (wells containing medium, but not test compounds and cells). […]

m2 receptor = molecular target: T2, m2 receptor (Homo sapiens, UniProt P08172); test: NIH 3T3 cells transfected with m2 muscarinic receptor and Gq-i5
T2 construct: expressed in transfected cells; host or cells: NIH 3T3 (ATCC CRL 1658)
T2 sequence (P08172 1-466): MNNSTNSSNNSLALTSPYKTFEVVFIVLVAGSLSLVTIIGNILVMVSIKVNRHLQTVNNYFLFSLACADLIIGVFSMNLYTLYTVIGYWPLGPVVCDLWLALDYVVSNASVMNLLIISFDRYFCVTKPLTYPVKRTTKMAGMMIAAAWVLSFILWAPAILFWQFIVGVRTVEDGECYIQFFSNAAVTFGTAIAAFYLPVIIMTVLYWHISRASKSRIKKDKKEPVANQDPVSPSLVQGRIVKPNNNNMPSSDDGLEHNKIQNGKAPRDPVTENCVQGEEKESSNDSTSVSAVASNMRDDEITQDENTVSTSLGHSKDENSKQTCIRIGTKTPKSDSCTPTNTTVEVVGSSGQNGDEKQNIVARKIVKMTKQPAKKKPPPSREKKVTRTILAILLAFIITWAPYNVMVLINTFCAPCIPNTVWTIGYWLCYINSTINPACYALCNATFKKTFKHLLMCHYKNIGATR
Experimental: as §1, §2
On day one, the cells were transfected using the Superfect transfection reagent (available from Qiagen, Valencia, Calif.) in accordance with the manufacturer's instructions. […]

histamine H1 = histamine H1 (Homo sapiens, UniProt P35367); test: Test against other receptors: histamine H1
histamine H1, sequence (P35367 whole entry): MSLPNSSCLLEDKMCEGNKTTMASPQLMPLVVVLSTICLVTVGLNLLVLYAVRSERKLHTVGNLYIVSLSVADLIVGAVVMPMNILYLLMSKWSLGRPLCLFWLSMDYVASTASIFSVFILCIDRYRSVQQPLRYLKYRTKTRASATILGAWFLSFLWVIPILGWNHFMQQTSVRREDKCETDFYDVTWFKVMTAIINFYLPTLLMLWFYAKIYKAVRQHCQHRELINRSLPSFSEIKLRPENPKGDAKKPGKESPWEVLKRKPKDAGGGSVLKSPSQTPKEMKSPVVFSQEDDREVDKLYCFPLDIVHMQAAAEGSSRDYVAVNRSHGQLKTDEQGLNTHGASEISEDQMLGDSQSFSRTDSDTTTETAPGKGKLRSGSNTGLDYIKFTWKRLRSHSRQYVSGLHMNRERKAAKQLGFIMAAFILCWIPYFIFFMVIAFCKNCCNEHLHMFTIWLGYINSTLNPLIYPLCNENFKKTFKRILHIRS

T1 sequence (P20309 whole entry): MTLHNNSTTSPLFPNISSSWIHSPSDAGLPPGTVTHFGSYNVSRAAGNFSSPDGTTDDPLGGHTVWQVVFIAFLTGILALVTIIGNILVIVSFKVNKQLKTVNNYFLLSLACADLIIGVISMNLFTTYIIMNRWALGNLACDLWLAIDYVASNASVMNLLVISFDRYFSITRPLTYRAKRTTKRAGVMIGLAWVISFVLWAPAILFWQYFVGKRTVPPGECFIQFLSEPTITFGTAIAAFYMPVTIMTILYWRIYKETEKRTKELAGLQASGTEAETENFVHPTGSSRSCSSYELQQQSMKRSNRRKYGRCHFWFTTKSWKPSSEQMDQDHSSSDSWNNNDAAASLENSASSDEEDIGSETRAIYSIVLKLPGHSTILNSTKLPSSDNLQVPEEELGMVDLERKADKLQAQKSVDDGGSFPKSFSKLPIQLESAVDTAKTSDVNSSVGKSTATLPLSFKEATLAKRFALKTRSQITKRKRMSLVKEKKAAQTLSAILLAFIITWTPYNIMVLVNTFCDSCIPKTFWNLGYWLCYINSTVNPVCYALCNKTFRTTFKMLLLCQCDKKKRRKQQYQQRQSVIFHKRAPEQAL

SMILES: CCCCC1CCN(CCCC(=O)c2ccccc2C)CC1 [Compound A, 4-n-Butyl-1-[4-(2-methylphenyl)-4-oxo-1-butyl]piperidine]
- agonist activity at the m3 receptor (m3 receptor): only activated the m1 receptor subtype
- Emax at 1.5 µM (m3 receptor; NIH3T3, m3, compound at 1.5 μM, maximum = response to 10 μM carbachol, read-out: Cellular response as a percentage of the maximum response of the cells): 7%
- antagonism of carbachol-induced responses (m3 receptor; m3): not an antagonist
- antagonism of carbachol-induced responses (m2 receptor): not an antagonist
- agonist activity (histamine H1): no significant activity

— patent publication US7485651B2, “Compounds with activity on muscarinic receptors” (Acadia Pharmaceuticals, Inc., priority 1998, dated 2009)
